In patent publication US10322995B2, “Substituted cyano cycloalkyl penta-2,4-dienes, cyano cycloalkyl pent-2-en-4-ynes, cyano heterocyclyl penta-2,4-dienes and cyano heterocyclyl pent-2-en-4-ynes as active substances against abiotic plant stress” (BAYER CROPSCIENCE AKTIENGESELLSCHAFT, priority 2014, dated 2019):

The compounds below were run against T1, phosphatase ABI1 via the co-regulator RCAR11/PYR1 (Arabidopsis thaliana, UniProt O49686+P49597) (assay: In vitro assay: inhibition of the phosphatase ABI1 via the co-regulator RCAR11/PYR1, MUP dephosphorylation, fluorescence). Conditions: MUP dephosphorylation, fluorescence 460 nm; read-out: ABI1 inhibition.
T1 sequence (O49686 1-191): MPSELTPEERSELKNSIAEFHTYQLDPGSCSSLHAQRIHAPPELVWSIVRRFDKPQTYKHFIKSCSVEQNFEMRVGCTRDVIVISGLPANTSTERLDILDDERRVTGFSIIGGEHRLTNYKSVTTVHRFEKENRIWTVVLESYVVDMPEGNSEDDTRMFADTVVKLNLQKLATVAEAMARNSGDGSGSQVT
T1 sequence (P49597 1-434): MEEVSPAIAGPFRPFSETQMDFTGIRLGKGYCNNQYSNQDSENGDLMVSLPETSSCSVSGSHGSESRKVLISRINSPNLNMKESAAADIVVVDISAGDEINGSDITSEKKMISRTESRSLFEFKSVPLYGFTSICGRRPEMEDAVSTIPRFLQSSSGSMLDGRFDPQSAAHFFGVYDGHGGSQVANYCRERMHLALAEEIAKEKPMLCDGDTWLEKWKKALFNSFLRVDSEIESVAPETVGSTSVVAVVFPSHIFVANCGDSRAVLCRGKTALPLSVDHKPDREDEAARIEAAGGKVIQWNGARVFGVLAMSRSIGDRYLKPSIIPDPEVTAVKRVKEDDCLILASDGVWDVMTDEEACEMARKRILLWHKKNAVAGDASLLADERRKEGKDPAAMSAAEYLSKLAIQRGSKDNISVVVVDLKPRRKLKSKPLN
Format: biochemical
Parameters: inhibition: dose or concentration left out as unconfirmed
How it was run: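 ABI1 (0.15 μg/well) with RCAR11 (0.30 μg/well) in Tris-HCl pH 8, NaCl, MnCl2, DTT and Tween20, with MUP as substrate; 20 min at 35 °C, fluorescence at ex 340/em 460 nm. Compounds were in DMSO/water, esterase-pretreated if needed, with DMSO 0.5% and ABA 5 μM as controls. Inhibition was binned into ≥90, 70–90, 50–70 and 30–50% classes.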

| Compound | inhibition [%] |
| --- | --- |
| CCOC(=O)/C=C(\C#CC(O)(C(C)C)C1(C#N)CC1)C1CC1 (stereo not drawn) [I.1-124, Ethyl (2Z)-6-(1-cyanocyclopropyl)-3-cyclopropyl-6-hydroxy-7-methyloct-2-en-4-ynoate] | > 90 |

Same assay, conditions: concentration of 5 mM of the substance in a solution of DMSO and water; MUP dephosphorylation, fluorescence 460 nm

| Compound | ABI1 inhibition |
| --- | --- |
| CC/C(C#CC(O)(c1ccccc1)C1(C#N)CC1)=C/C(=O)OC (stereo not drawn) [I.1-202] | ++++ (inhibition≥90%) |
| CCCOC(=O)/C=C(\C#CC(O)(c1ccccc1)C1(C#N)CC1)CC (stereo not drawn) [I.1-609] | ++++ (inhibition≥90%) |
| CCC(C=CC(O)(c1ccccc1)C1(C#N)CC1)=CC(=O)O (racemic) [I.2-201] | ++++ (inhibition≥90%) |
| CCCOC(=O)/C=C(\C#CC(O)(C(C)C)C1(C#N)CC1)CC (stereo not drawn) [I.1-605] | ++++ (inhibition≥90%) |
| COC(=O)/C=C(/C)C#CC(O)(C(C)C)C1(C#N)CC1 (stereo not drawn) [I.1-135] | ++++ (inhibition≥90%) |
| CCOC(=O)/C=C(\C#CC(O)(C(C)C)C1(C#N)CC1)CC (stereo not drawn) [I.1-103] | ++++ (inhibition≥90%) |
| CCOC(=O)/C=C(/C)C#CC(O)(C(C)C)C1(C#N)CC1 (stereo not drawn) [I.1-136] | +++ (90%>inhibition≥70%) |
| CC/C(C#CC(O)(C1CCC1)C1(C#N)CC1)=C/C(=O)OC (stereo not drawn) [I.1-648] | ++++ (inhibition≥90%) |
